# Source: ChEMBL document CHEMBL1136259, “Synthesis of 2-substituted-pyrrolidinethiourea derivatives and their antagonist effect on vanilloid receptor” (Bioorg Med Chem Lett, 2003)
# Legend:
# [1] = species: Rattus norvegicus; assay: Antagonist activity tested in [Ca2+] -influx assay by using neonatal rat cultured spinal sensory neurons; format: functional
# [2] = species: Rattus norvegicus; assay: Agonist activity tested in [Ca2+] -influx assay by using neonatal rat cultured spinal sensory neurons; format: functional
IC50 [1],EC50 [2],Compound
> 100 µM,> 100 µM,Oc1ccc(C2CCCN2/C(S)=N/CCc2ccccc2)cc1O (stereo not given)
3 µM,> 100 µM,COc1cc(CCC2CCCN2/C(S)=N/CCc2ccccc2)ccc1O (stereo not given)

# Further lines, the compound ahead of its results:
Compound,IC50 [1],EC50 [2]
COc1cc(C2CCCN2/C(S)=N/CCc2ccccc2)ccc1O (stereo not given),> 100 µM,> 100 µM
Oc1ccc(CCC2CCCN2/C(S)=N/CCc2ccccc2)cc1O (stereo not given),55 µM,> 100 µM
Oc1cc2c(cc1O)CN(C(=S)NCCc1ccc(Cl)cc1)CCC2 [CAPSAZEPINE],0.6 µM,> 100 µM
